Assay results as given in patent publication US20130217615A1, “COMBINATION TREATMENT OF MAJOR DEPRESSIVE DISORDER” (SHIRE LLC, priority 2010, published 2013).
“Also recorded” adds a separate entry of the source.

Tests used:
[1] = test system: major depressive disorder (MDD); conditions: augmentation of standard antidepressant treatment; cited from earlier work
[2] = Same study, double-blind augmentation phase: safety (TEAEs, C-SSRS, vital signs, ECG, weight/BMI, laboratory); format: in vivo, human
Excerpt: Adverse events (AEs) were collected during the study and coded using the Medical Dictionary for Regulatory Activities, Version 11.1. Treatment-emergent AEs (TEAEs) were defined as AEs that started or deteriorated on or after the date of the first dose of study drug during the double-blind treatment phase and no later than 3 days following the last dose of study drug. The incidence of TEAEs of special interest, including psychiatric (psychosis/mania, suicide, aggression, or other) and nonpsychiatric (weight, clinical laboratory [liver enzymes], vital signs, and sexual dysfunction) was also assessed. Vital signs (sitting SBP and DBP, pulse, and sitting respiratory rate), and Columbia-Suicide Severity Rating Scale (C-SSRS; Posner K, Brent D, Lucas C, et al.) a semistructured interview assessing the occurrence, severity, and frequency of suicide-related thoughts and behaviors) were measured at screening and all study visits. Laboratory assessments were conducted at screening, week 8, week 11, and study endpoint; physical examinations were conducted at screening, week 8, and study endpoint.
Safety analyses during double-blind treatment were performed on the randomized safety analysis set (all participants who took dose of randomized augmentation treatment and had safety assessment after treatment initiation). AEs, vital signs, weight and body mass index (BMI), electrocardiograms (ECG) findings, laboratory results, and C-SSRS results were descriptively summarized.

[3] = test system: major depressive disorder (MDD); assay: Multicenter, randomized, double-blind, placebo-controlled study of LDX (Vyvanse) as augmentation to escitalopram: efficacy (MADRS, HAM-D17, QIDS-SR, CGI); format: in vivo, human; conditions: for HAM-D17 change in total score, LS mean change (90% CI): week 8 to 14
Experimental: In this investigational 14-week, double-blind, randomized, placebo-controlled study (n=246), Vyvanse or placebo was administered orally as an adjunctive therapy to adults between the ages of 18 and 55, who experienced residual depressive symptoms following treatment with 20 mg/day escitalopram/LEXAPRO® (prospective 8-week period). Residual depressive symptoms were defined as 17—Item Hamilton Rating Scale for Depression (HAM-D 17) score at the end of this prospective phase (n=177). In the double blind 6-week period, those with residual depressive symptoms were randomized to receive escitalopram plus either placebo or Vyvanse (dose range of 20 to 50 mg per day) on a 1:1 basis.
The primary study endpoint was the mean change in the total MADRS score in non-remitters after 6 weeks of blinded treatment. Non-remitters were defined as having a total Montgomery-Asberg Depression Rating Scale (MADRS) score>10 at randomization, following 8 weeks of escitalopram treatment (n=129). The key secondary outcome was the Sheehan Disability Scale (SDS). Both the MADRS and SDS are well-validated and widely used assessments in MDD research; the MADRS provides evidence of symptomatic improvement while the SDS reflects the functional impact of the symptomatic improvement. The significance level was prospectively set at 10%.
This was a multicenter, randomized, double-blind, parallel-group, placebo-controlled study in participants with major depressive disorder (MDD) conducted at 15 sites in the United States from July 2009 to August 2010. The study had 4 phases: screening and washout (if necessary), 8 weeks of open-label escitalopram oxalate, 6 weeks of double-blind LDX treatment as augmentation therapy to escitalopram, and a safety follow-up.
Eligible participants were adults (18-55 y) with a primary diagnosis of nonpsychotic MDD according to the Structured Clinical Interview for the Diagnostic and Statistical Manual of Mental Disorders, Fourth Edition—Text Revision™ disorders—Axis I (SCID-I) (American Psychiatric Association (Diagnostic and Statistical Manual of Mental Disorders, Fourth Edition Text Revision, Washington D.C., American Psychiatric Association, 2000). Diagnosis was confirmed using Module A of the Mini-International Psychiatric Interview (MINI). Participants not receiving antidepressants at screening were required to have a baseline Hamilton Rating Scale for Depression-17 items (HAM-D17) score 22; those receiving antidepressants at screening had to have a HAM-D17 score 0 and not to have achieved remission based on investigator opinion following at least 6 weeks of treatment. Women of childbearing age were required to be nonpregnant/nonlactating and on adequate contraception. Permitted concomitant therapies included hormonal therapy, thyroid medication, […], bronchodilator inhalers, nonsedating antihistamines, antibiotics, and over the counter medications not affecting blood pressure (BP), heart rate, or the central nervous system.
After screening/washout, participants underwent 8 weeks of open-label escitalopram monotherapy (10 mg/d at week 1; 20 mg/d thereafter). At week 8 (the augmentation baseline), those with a tolerable safety profile and residual MDD symptoms, defined as a HAM-D17 score were randomized 1:1 to receive LDX or placebo in a 6-week double-blind phase. Participants were stratified by baseline remission status (escitalopram remitters: Montgomery-Asberg Depression Rating Scale [MADRS] total score 10; escitalopram nonremitters: MADRS score >10) to enhance between-treatment balance. Treatment with LDX was initiated at 20 mg/d. The dose was increased weekly, first to 30 mg/d and then to 50 mg/d, during the dose-optimization period. Investigators could increase the dose through week 10 and decrease the dose (only once per participant) at any time; the LDX dose at week 11 was maintained through study endpoint (week 14/final study visit). […]

[4] = Visit 13 (week 14) / study endpoint
[5] = adjunctive therapy with escitalopram
[6] = double-blind augmentation phase, n = 88
[7] = escitalopram nonremitters, study endpoint

O=C1CCc2ccc(OCCCCN3CCN(c4cccc(Cl)c4Cl)CC3)cc2N1 [aripiprazole]
effect size for MADRS total scores vs placebo [1]: 0.35

C[C@@H](Cc1ccccc1)NC(=O)[C@@H](N)CCCCN [LDX, N-[(1S)-1-methyl-2-phenylethyl]-L-lysinamide]
adverse effects beyond those previously seen ([2]; LDX with escitalopram): No significant adverse effects were seen that went beyond those previously seen with escitalopram and LDX
increases in blood pressure and pulse rate ([2]; LDX with escitalopram): generally were small and consistent with product labeling
BMI, mean (SD) change from augmentation baseline ([2]; Visit 13 (week 14)): −0.4 (0.70) kg/m^2
ECG HR, mean (SD) change from augmentation baseline ([2]; Visit 13 (week 14)): 4.8 (8.64) bpm
ECG QTcF, mean (SD) change from augmentation baseline ([2]; Visit 13 (week 14)): −4.9 (11.84) ms
Weight, mean (SD) change from augmentation baseline ([2]; Visit 13 (week 14)): −1.2 (2.00) kg
DBP, mean (SD) change from augmentation baseline [2, 4]: 0.9 (6.61) mmHg
Pulse, mean (SD) change from augmentation baseline [2, 4]: 3.3 (8.45) bpm
SBP, mean (SD) change from augmentation baseline [2, 4]: 2.3 (9.04) mmHg
ECG and clinical laboratory changes [2, 5]: No clinically significant mean changes
most commonly reported adverse events [2, 5]: dry mouth, headache, decreased appetite, and insomnia
ECG and clinical laboratory changes ([2]; adjunctive therapy with escitalopram, listed as VYVANSE): No notable ECG changes or changes in clinical laboratory assessments
TEAE: Decreased appetite [2, 6]: 6 (6.8) n (%)
TEAE: Dry mouth [2, 6]: 10 (11.4) n (%)
TEAE: Headache [2, 6]: 10 (11.4) n (%)
TEAE: Insomnia [2, 6]: 4 (4.5) n (%)
TEAE: Nasopharyngitis [2, 6]: 5 (5.7) n (%)
Any TEAE ([2]; double-blind augmentation phase, randomized safety analysis set (n = 88)): 53 (60.2) n (%)
abnormal hepatic enzymes (TEAE) ([2]; double-blind treatment): 1.1%
decreased weight (TEAE) ([2]; double-blind treatment): 2.3%
nonpsychiatric TEAEs of special interest ([2]; double-blind treatment): 9.1%
psychiatric TEAE categorized as psychosis/mania, suicidal, or aggression ([2]; double-blind treatment): no participant
psychiatric TEAE: abnormal dreams ([2]; double-blind treatment): 1.1%
psychiatric TEAE: anxiety ([2]; double-blind treatment): 3.4%
psychiatric TEAE: feeling jittery ([2]; double-blind treatment): 2.3%
psychiatric TEAE: irritability ([2]; double-blind treatment): 3.4%
psychiatric TEAE: somnolence, number of participants ([2]; double-blind treatment): 0
psychiatric TEAEs of special interest ([2]; double-blind treatment): 18.2%
vital-sign related TEAEs ([2]; double-blind treatment): 5.7%
suicidal behavior ([2]; during augmentation treatment): No participants exhibited suicidal behavior
patients remaining in BMI category at study endpoint ([2]; normal (18.5 to <25.0) at augmentation baseline): 81.8%
patients remaining in BMI category at study endpoint ([2]; obese (30) at augmentation baseline): 82.5%
patients remaining in BMI category at study endpoint ([2]; overweight (25.0 to <30.0) at augmentation baseline): 76.9%
participants reporting at least 1 TEAE ([2]; randomized augmentation phase): 60.2%
participants reporting mild TEAEs ([2]; randomized augmentation phase): 18.2%
participants reporting moderate TEAEs ([2]; randomized augmentation phase): 30.7%
participants reporting severe TEAEs ([2]; randomized augmentation phase): 11.4%
study discontinuation due to TEAEs, number of participants ([2]; randomized augmentation phase): 2
incidence of decreased appetite ([2]; randomized treatment): 6.8%
incidence of dry mouth ([2]; randomized treatment): 11.4%
incidence of headache ([2]; randomized treatment): 11.4%
incidence of insomnia ([2]; randomized treatment): 4.5%
incidence of nasopharyngitis ([2]; randomized treatment): 5.7%
C-SSRS affirmative response (wished dead / not wake up), number of participants ([2]; week 9): 1
C-SSRS affirmative response (wished dead / not wake up), number of participants ([2]; week 10): 2
C-SSRS affirmative response (wished dead / not wake up), number of participants ([2]; week 14): 1
improvement compared to placebo on the mean total MADRS ([3]; 'per protocol' analysis of non-remitting subjects, after 6 weeks, adjunctive to escitalopram 20 mg/day): −2.2
HAM-D17 50% decrease at week 14 ([3]; all randomized participants): 62 (70.5) n (%)
HAM-D17 total score ≦10 at week 14 ([3]; all randomized participants): 37 (42.0) n (%)
MADRS 50% decrease at week 14 ([3]; all randomized participants): 64 (72.7) n (%)
MADRS total score ≦10 at week 14 ([3]; all randomized participants): 52 (59.1) n (%)
QIDS-SR change in total score, LS mean change (90% CI) ([3]; all randomized participants (n = 85)): −2.5 (−3.1, −1.8)
HAM-D17 change in total score, LS mean change (90% CI) ([3]; all randomized participants): −3.9 (−5.0, −2.9)
MADRS change in total score, LS mean change (90% CI) ([3]; all randomized participants, week 8 to week 14): −4.8 (−6.3, −3.4)
MADRS items related to appetite, sleep, or thoughts of self-harm ([3]; analysis of MADRS items): no significant worsening
MADRS items showing improvement ([3]; analysis of MADRS items, all p≦0.08): improvement present in domains of mood, concentration, interest, and motivation
adjusted effect size of MADRS total scores for LDX vs placebo ([3]; at endpoint): −0.3
HAM-D17 50% decrease at week 14 ([3]; escitalopram nonremitters): 41 (63.1) n (%)
HAM-D17 total score ≦10 at week 14 ([3]; escitalopram nonremitters): 21 (32.3) n (%)
MADRS 50% decrease at week 14 ([3]; escitalopram nonremitters): 43 (66.2) n (%)
MADRS total score ≦10 at week 14 ([3]; escitalopram nonremitters): 32 (49.2) n (%)
MDD symptoms vs placebo, clinician-assessed and patient self-reported measures ([3]; escitalopram nonremitters): improved MDD symptoms vs placebo
QIDS-SR change in total score, LS mean change (90% CI) ([3]; escitalopram nonremitters (n = 63)): −2.4 (−3.1, −1.6)
proportion achieving MADRS remission (total score ≦10) [3, 7]: 49.2%
proportion achieving a 25% decrease in MADRS total score [3, 7]: 89.2%
proportion of participants with a 50% decrease in MADRS total score [3, 7]: 66.2%
HAM-D17 change in total score, LS mean change (90% CI) ([3]; escitalopram nonremitters): −4.9 (−6.0, −3.9)
self-assessed MDD symptoms ([3]; escitalopram remitters): improved self-assessed MDD symptoms
primary or secondary efficacy outcome measures, LDX vs placebo ([3]; escitalopram remitters, augmentation baseline and study endpoint): no significant differences; also recorded: no treatment differences
all MADRS outcomes, LDX versus placebo ([3]; full analysis set (FAS)): numerically greater improvement
endpoint LS mean difference between Vyvanse and placebo, total MADRS ([3]; subjects with total MADRS score >10 and <50% improvement in total MADRS score, adjunctive to escitalopram): −3.9
LS mean (90% CI) change in QIDS-SR total scores at week 14 ([3]; table footnote, printed as escitalopram nonremitters (P = .0852)): For escitalopram nonremitters, LS mean (90% CI) change in QIDS-SR total scores at week 14 were −1.9 (−2.9, −0.9) and −0.4 (−1.4, −0.5) for those taking LDX and placebo, respectively (P = .0852)
CGI-S: proportion of patients with a response ranging from no illness to mild illness ([3]; week 14): However, CGI-S scores at week 14 showed a numerically greater proporation of patients had a response ranging from no illness, to mild illness, with LDX (88.9%) vs placebo (61.3%)
